ChEMBL document CHEMBL4334442, “Effects of Acetylshikonin on the Infection and Replication of Coxsackievirus A16 in Vitro and in Vivo” (J Nat Prod, 2019)
Active and inactive are the calls of the source. No cut-off for these calls is given here.

Key:
Coxsackievirus A16 [1] = test: Antiviral activity against Coxsackievirus A16 TA271 infected in ICR mouse assessed as reduction in virus-induced IFN-gamma level at 2 mg/kg, im after 3 days post infection by ELISA; format: functional, organism-based
Coxsackievirus A16 [2] = test: Antiviral activity against Coxsackievirus A16 TA271 infected in ICR mouse assessed as mild alveolar wall thickening in hind limb muscle at 2 mg/kg, im after 5 days post infection by H and E staining based histopathological analysis; format: functional, organism-based
Coxsackievirus A16 [3] = test: Antiviral activity against Coxsackievirus A16 TA271 infected in ICR mouse assessed as reduction in inflammatory cell infiltration in spinal muscle at 2 mg/kg, im after 5 days post infection by H and E staining based histopathological analysis; format: functional, organism-based
Coxsackievirus A16 [4] = test: Antiviral activity against Coxsackievirus A16 TA271 infected in ICR mouse assessed as reduction in viral load in lung at 0.08 uM/L preincubated with viral suspension for 2 hrs followed by intramuscular administration after 3 to 5 days post infection by RT-PCR analysis; format: functional
Coxsackievirus A16 [5] = test: Antiviral activity against Coxsackievirus A16 16038 infected in RD cells assessed as reduction in viral genome copies at 0.08 uM/L preincubated with viral suspension for 2 hrs followed by cell addition and measured at 24 hrs post infection by RT-PCR analysis; format: functional, cell-based
Coxsackievirus A16 [6] = test: Antiviral activity against Coxsackievirus A16 TA271 infected in human RD cells assessed as inhibition of virus-induced cytopathic effect preincubated with viral suspension for 2 hrs followed by cell addition and measured after 24 hrs by CCK-8 assay; format: functional, cell-based
Coxsackievirus A16 [7] = test: Antiviral activity against Coxsackievirus A16 TA271 infected in RD cells assessed as inhibition of viral adsorption/viral entry by measuring increase in cell viability at 0.08 uM/L after 1 hr by inverted microscopic analysis; format: functional, cell-based
Coxsackievirus A16 [8] = test: Antiviral activity against Coxsackievirus A16 TA271 infected in ICR mouse assessed as reduction in lesions in spinal muscle at 2 mg/kg, im after 5 days post infection by H and E staining based histopathological analysis; format: functional, organism-based
Coxsackievirus A16 [9] = test: Antiviral activity against Coxsackievirus A16 TA271 infected in RD cells assessed as effect on viral load at preinfection stage at 0.08 uM/L preincubated with cells for 3 hrs followed by viral infection for 1 hr and measured after 48 hrs post infection in fresh medium by RT-PCR analysis; format: functional, cell-based
Coxsackievirus A16 [10] = test: Antiviral activity against Coxsackievirus A16 TA271 infected in RD cells assessed as inhibition of viral adsorption/entry by measuring reduction in viral load at 0.08 uM/L incubated for 1 hr and measured after 48 hrs post infection by RT-PCR analysis; format: functional, cell-based
Coxsackievirus A16 [11] = test: Antiviral activity against Coxsackievirus A16 TA271 infected in RD cells at preinfection stage assessed as cell detachment at 0.08 uM/L preincubated with cells for 3 hrs followed by viral infection and measured after 1 hr by inverted microscopic analysis; format: functional, cell-based
Coxsackievirus A16 [12] = test: Antiviral activity against Coxsackievirus A16 TA271 infected in ICR mouse assessed as increase in inflammatory cell proliferation in spinal muscles at 0.08 uM/L preincubated with viral suspension for 2 hrs followed by intramuscular administration after 5 days post infection by H and E staining based histopathological analysis; format: functional
Coxsackievirus A16 [13] = test: Antiviral activity against Coxsackievirus A16 TA271 infected in ICR mouse assessed as mild alveolar fibrosis in spinal muscle at 2 mg/kg, im after 5 days post infection by H and E staining based histopathological analysis; format: functional, organism-based
Coxsackievirus A16 [14] = test: Antiviral activity against Coxsackievirus A16 TA271 infected in ICR mouse assessed as reduction in lesions in lung at 2 mg/kg, im after 5 days post infection by H and E staining based histopathological analysis; format: functional, organism-based
Coxsackievirus A16 [15] = test: Antiviral activity against Coxsackievirus A16 TA271 infected in ICR mouse assessed as reduction in viral load in hind limb muscle at 2 mg/kg, im after 3 to 5 days post infection by RT-PCR analysis; format: functional, organism-based
[16] = Cytotoxicity against human RD cells assessed as cell survival at <5 uM after 24 hrs by CCK8 assay relative to control; format: cell-based; details: read-out: Activity
Coxsackievirus A16 [17] = test: Antiviral activity against Coxsackievirus A16 TA271 infected in RD cells at replication stage assessed as cell detachment at 0.08 uM/L 1 hr post-infection viral inoculum was removed and cells incubated with medium containing compound and measured after 5 hrs by inverted microscopic analysis; format: functional, cell-based
Coxsackievirus A16 [18] = test: Antiviral activity against Coxsackievirus A16 TA271 infected in ICR mouse assessed as reduction in lesions in hind limb muscle at 2 mg/kg, im after 5 days post infection by H and E staining based histopathological analysis; format: functional, organism-based
Coxsackievirus A16 [19] = test: Antiviral activity against Coxsackievirus A16 TA271 infected in ICR mouse assessed as reduction in virus-induced IL-6 level at 0.08 uM/L preincubated with viral suspension for 2 hrs followed by intramuscular administration after 3 days post infection by ELISA; format: functional
Coxsackievirus A16 [20] = test: Antiviral activity against Coxsackievirus A16 TA271 infected in ICR mouse assessed as reduction in inflammatory cell infiltration in heart at 2 mg/kg, im after 5 days post infection by H and E staining based histopathological analysis; format: functional, organism-based
Coxsackievirus A16 [21] = test: Antiviral activity against Coxsackievirus A16 TA271 infected in RD cells at release stage assessed as increase in intracytoplasmic granules at 0.08 uM/L preincubated with cells for 1 hr followed by replacement of fresh medium containing compounds after 5 hrs post infection and further incubated for 16 hrs post infection by inverted microscopic analysis; format: functional, cell-based
Coxsackievirus A16 [22] = test: Antiviral activity against Coxsackievirus A16 TA271 infected in RD cells assessed as log reduction in viral genome copies at 0.08 uM/L preincubated with viral suspension for 2 hrs followed by cell addition and measured at 24 hrs post infection by RT-PCR analysis; format: functional
Coxsackievirus A16 [23] = test: Antiviral activity against Coxsackievirus A16 TA271 infected in ICR mouse assessed as reduction in virus-induced IL-6 level at 2 mg/kg, im after 3 days post infection by ELISA; format: functional, organism-based
Coxsackievirus A16 [24] = test: Antiviral activity against Coxsackievirus A16 TA271 infected in ICR mouse assessed as reduction in viral load in hind limb muscle at 0.08 uM/L preincubated with viral suspension for 2 hrs followed by intramuscular administration after 3 to 5 days post infection by RT-PCR analysis; format: functional
Coxsackievirus A16 [25] = test: Antiviral activity against Coxsackievirus A16 TA271 infected in RD cells at release stage assessed as appearance of cell shrinkage at 0.08 uM/L preincubated with cells for 1 hr followed by replacement of fresh medium containing compounds after 5 hrs post infection and further incubated for 16 hrs post infection by inverted microscopic analysis; format: functional, cell-based
[26] = Toxicity in ICR mouse infected with Coxsackievirus A16 TA271 assessed as increase in body weight at 0.08 uM/L preincubated with viral suspension for 2 hrs followed by intramuscular administration and measured every day; details: in vivo, im
Coxsackievirus A16 [27] = test: Antiviral activity against Coxsackievirus A16 TA271 infected in RD cells at preinfection stage assessed as appearance of rounded cells at 0.08 uM/L preincubated with cells for 3 hrs followed by viral infection and measured after 1 hr by inverted microscopic analysis; format: functional, cell-based
Coxsackievirus A16 [28] = test: Antiviral activity against Coxsackievirus A16 TA271 infected in RD cells at preinfection stage assessed as appearance of cell shrinkage at 0.08 uM/L preincubated with cells for 3 hrs followed by viral infection and measured after 1 hr by inverted microscopic analysis; format: functional, cell-based

CC(=O)OC(CC=C(C)C)C1=CC(=O)c2c(O)ccc(O)c2C1=O (centres undefined)
Activity (Coxsackievirus A16 [1]): Active
Activity (Coxsackievirus A16 [2]): Active
Activity (Coxsackievirus A16 [3]): Active
Activity (Coxsackievirus A16 [4]): Active
Activity (Coxsackievirus A16 [5]): Active
Activity (Coxsackievirus A16 [6]): Dose-dependent effect
EC50 (Coxsackievirus A16 [6]; Enterovirus A): 40 nM
inhibition (Coxsackievirus A16 [7]): Active
Activity (Coxsackievirus A16 [8]): Active
Activity (Coxsackievirus A16 [9]): inactive
Activity (Coxsackievirus A16 [10]): Active
Activity (Coxsackievirus A16 [11]): inactive
Activity (Coxsackievirus A16 [12]): Active
Activity (Coxsackievirus A16 [13]): Active
Activity (Coxsackievirus A16 [14]): Active
Activity (Coxsackievirus A16 [15]): Active
viability at 24 h [16]: > 90%
Activity (Coxsackievirus A16 [17]): inactive
Activity (Coxsackievirus A16 [18]): Active
Activity (Coxsackievirus A16 [19]): Active
Activity (Coxsackievirus A16 [20]): Active
Activity (Coxsackievirus A16 [21]): inactive
LCK (Coxsackievirus A16 [22]): >2
Activity (Coxsackievirus A16 [23]): Active
Activity (Coxsackievirus A16 [24]): Active
Activity (Coxsackievirus A16 [25]): inactive
Activity [26]: Non-Toxic
Activity (Coxsackievirus A16 [27]): inactive
Activity (Coxsackievirus A16 [28]): inactive
